Legend:
[1] = biological target: T1, human GR (glucocorticoid receptor) (Homo sapiens, UniProt P04150); assay: GR competition binding assay (HEK293 cell lysate); details: 0.3 nM 3H-dexamethasone, 293-GR lysate
T1 construct: expressed in transfected cells; host or cells: HEK293
T1 sequence (P04150 1-777): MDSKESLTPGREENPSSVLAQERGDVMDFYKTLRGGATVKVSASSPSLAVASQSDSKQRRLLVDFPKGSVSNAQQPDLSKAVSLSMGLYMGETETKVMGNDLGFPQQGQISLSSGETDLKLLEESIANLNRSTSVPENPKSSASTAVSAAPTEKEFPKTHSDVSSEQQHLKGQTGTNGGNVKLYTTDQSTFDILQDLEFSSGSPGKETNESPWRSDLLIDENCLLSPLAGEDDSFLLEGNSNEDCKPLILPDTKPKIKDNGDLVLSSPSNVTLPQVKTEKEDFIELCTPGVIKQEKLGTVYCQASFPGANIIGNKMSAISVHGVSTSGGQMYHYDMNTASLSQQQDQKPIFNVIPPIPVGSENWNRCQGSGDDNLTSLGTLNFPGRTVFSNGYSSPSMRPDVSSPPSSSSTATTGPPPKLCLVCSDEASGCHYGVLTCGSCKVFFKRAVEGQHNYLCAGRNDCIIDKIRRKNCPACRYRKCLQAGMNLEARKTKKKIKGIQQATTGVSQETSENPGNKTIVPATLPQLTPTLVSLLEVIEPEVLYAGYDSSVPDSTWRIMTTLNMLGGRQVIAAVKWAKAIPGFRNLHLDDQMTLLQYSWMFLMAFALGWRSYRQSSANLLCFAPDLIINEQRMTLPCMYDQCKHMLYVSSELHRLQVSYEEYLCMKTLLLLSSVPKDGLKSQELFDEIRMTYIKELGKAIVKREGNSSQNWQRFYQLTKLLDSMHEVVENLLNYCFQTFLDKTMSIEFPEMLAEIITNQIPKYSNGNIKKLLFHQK
Description: (§1) Cell lysates from HEK293 cells overexpressing human GR (glucocorticoid receptor), AR (androgen receptor), MR (mineralocorticoid receptor) or PR (progesterone receptor) are used for competition binding assays to determine Ki values for compounds of interest. Briefly, competition binding assays are run in a buffer containing 20 mM HEPES, pH 7.6, 0.2 mM EDTA, 75 mM NaCl, 1.5 mM MgCl2, 20% glycerol, 20 mM sodium molybdate, 0.2 mM DTT, 20 ug/ml aprotinin, and 20 ug/ml leupeptin, using either 0.3 nM ^3H-dexamethasone for GR binding, 0.36 nM ^3H-methyltrienolone for AR binding, 0.25 nM ^3H-aldosterone for MR binding, or 0.29 nM ^3H-methyltrienolone for PR binding, and either 20 ug 293-GR lysate, 22 ug 293-AR lysate, 20 ug 293-MR lysate or 40 ug 293-PR lysate per well. Competing compounds are added at various concentrations in half-log increments. Non-specific binding is determined in the presence of 500 nM dexamethasone for GR binding, 500 nM aldosterone for MR binding, or 500 nM methyltrienolone for AR and PR binding. The binding reaction (140 μl) is incubated overnight at 4° C., then 70 μl of cold charcoal-dextran buffer (containing per 50 ml of assay buffer, 0.75 g of charcoal and 0.25 g of dextran) is added to each reaction. Plates are mixed 8 minutes on an orbital shaker at 4° C. Plates are then centrifuged at 3,000 rpm at 4° C. for 10 minutes. An aliquot of 120 μl of the mixture is transferred to another 96-well plate and 175 μl of Wallac Optiphase “Hisafe 3” scintillation fluid is added to each well. Plates are sealed and shaken vigorously on an orbital shaker. After an incubation of 2 hrs, plates are read in a Wallac Microbeta counter. […] The Kd for ^3H-dexamethasone for GR binding, ^3H-methyltrienolone for AR binding, ^3H-aldosterone for MR binding, or ^3H-methyltrienolone for PR binding, is determined by saturation binding. The IC50 values for compounds are converted to Ki using Cheng-Prusoff equation and the Kd determined by saturation binding assay.

[2] = biological target: T2, human AR (androgen receptor) (Homo sapiens, UniProt P10275); assay: AR competition binding assay (HEK293 cell lysate); details: 0.36 nM 3H-methyltrienolone, 293-AR lysate
T2 construct: expressed in transfected cells; host or cells: HEK293
T2 sequence (P10275 1-920): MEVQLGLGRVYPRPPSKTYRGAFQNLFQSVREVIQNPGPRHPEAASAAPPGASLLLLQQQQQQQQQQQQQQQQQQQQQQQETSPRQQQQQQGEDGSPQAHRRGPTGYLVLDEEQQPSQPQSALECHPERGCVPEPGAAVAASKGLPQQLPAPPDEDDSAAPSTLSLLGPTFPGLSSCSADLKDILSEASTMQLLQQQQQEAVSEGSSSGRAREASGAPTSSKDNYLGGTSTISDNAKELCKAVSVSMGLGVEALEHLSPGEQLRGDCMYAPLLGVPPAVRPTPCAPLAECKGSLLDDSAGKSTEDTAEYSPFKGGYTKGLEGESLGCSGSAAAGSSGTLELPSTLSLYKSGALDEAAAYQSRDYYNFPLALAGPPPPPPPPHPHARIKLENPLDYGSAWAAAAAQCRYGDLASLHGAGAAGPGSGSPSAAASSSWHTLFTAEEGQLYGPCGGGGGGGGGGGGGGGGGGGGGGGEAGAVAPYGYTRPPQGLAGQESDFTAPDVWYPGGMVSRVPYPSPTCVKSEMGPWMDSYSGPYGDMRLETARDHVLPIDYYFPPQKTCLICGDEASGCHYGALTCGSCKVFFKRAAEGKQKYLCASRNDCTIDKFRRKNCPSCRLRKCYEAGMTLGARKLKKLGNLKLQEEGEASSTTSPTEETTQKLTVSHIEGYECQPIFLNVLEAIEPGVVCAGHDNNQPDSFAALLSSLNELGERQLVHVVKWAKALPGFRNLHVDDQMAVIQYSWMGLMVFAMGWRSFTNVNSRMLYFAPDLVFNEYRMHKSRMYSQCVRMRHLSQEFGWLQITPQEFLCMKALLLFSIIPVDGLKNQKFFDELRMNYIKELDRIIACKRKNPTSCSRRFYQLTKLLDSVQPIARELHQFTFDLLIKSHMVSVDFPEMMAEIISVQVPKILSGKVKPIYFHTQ
Description: as §1

Ki [1] | Ki [2] | SMILES
0.1 to 0.5 µM | 0.1 to 0.5 µM | CC(C)Cn1cc(-c2ccc(C#N)cc2)c2ccc(NS(C)(=O)=O)cc21 [Example 29, N-[3-(4-Cyano-phenyl)-1-isobutyl-1H-indol-6-yl]-methanesulfonamide]
> 1 µM | > 1 µM | CC(C)n1cc(-c2ccc(C(N)=O)cc2)c2ccc(NS(C)(=O)=O)cc21 [Example 87, 4-(1-Isopropyl-6-methanesulfonylamino-1H-indol-3-yl)-benzamide]
> 1 µM | > 1 µM | CC(C)n1cc(-c2ccc(C#N)cc2)c2ccc(NS(C)(=O)=O)cc21 [Example 28, N-[3-(4-Cyano-phenyl)-1-isopropyl-1H-indol-6-yl]-methanesulfonamide]
> 1 µM | > 1 µM | CC(C)n1cc(-c2ccc(C#N)cc2)c2ccc(NS(=O)(=O)N3CCOCC3)cc21 [Example 100, Morpholine-4-sulfonic acid [3-(4-cyano-phenyl)-1-isopropyl-1H-indol-6-yl]-amide]
0.1 to 0.5 µM | 0.1 to 0.5 µM | CS(=O)(=O)Nc1ccc2c(-c3ccc(C#N)cc3)cn(CC3CCCCC3)c2c1 [Example 77, N-[3-(4-Cyano-phenyl)-1-cyclohexylmethyl-1H-indol-6-yl]-methanesulfonamide]
> 1 µM | 0.1 to 0.5 µM | CC(C)n1cc(-c2ccccc2)c2ccc(NS(C)(=O)=O)cc21 [Example 85, N-(1-Isopropyl-3-phenyl-1H-indol-6-yl)-methanesulfonamide]
> 1 µM | > 1 µM | COc1ccc(-c2cn(C(C)C)c3cc(NS(C)(=O)=O)ccc23)cc1C [Example 86, N-[1-Isopropyl-3-(4-methoxy-3-methyl-phenyl)-1H-indol-6-yl]-methanesulfonamide]
> 1 µM | 0.1 to 0.5 µM | CC(C)n1cc(-c2ccc(C#N)s2)c2ccc(NS(C)(=O)=O)cc21 [Example 43, N-[3-(5-Cyano-thiophen-2-yl)-1-isopropyl-1H-indol-6-yl]-methanesulfonamide]
> 1 µM | > 1 µM | CC(C)n1cc(-c2ccc3c(c2)COC3=O)c2ccc(NS(C)(=O)=O)cc21 [Example 97, N-[1-Isopropyl-3-(1-oxo-1,3-dihydro-isobenzofuran-5-yl)-1H-indol-6-yl]-methanesulfonamide]
> 1 µM | > 1 µM | Cn1cc(-c2ccc([N+](=O)[O-])cc2)c2ccc(NS(C)(=O)=O)cc21 [Example 30, N-[1-Methyl-3-(4-nitro-phenyl)-1H-indol-6-yl]-methanesulfonamide]
> 1 µM | > 1 µM | CSc1ccc(-c2cn(C(C)C)c3cc(NS(C)(=O)=O)ccc23)cc1 [Example 83, N-[1-Isopropyl-3-(4-methylsulfanyl-phenyl)-1H-indol-6-yl]-methanesulfonamide]
> 1 µM | > 1 µM | CC(C)n1cc(-c2ccc3oc(=O)ccc3c2)c2ccc(NS(C)(=O)=O)cc21 [Example 96, N-[1-Isopropyl-3-(2-oxo-2H-chromen-6-yl)-1H-indol-6-yl]-methanesulfonamide]
> 1 µM | > 1 µM | Cn1cc(-c2ccc(C#N)cc2)c2ccc(NS(=O)(=O)c3cccs3)cc21 [Example 32, Thiophene-2-sulfonic acid [3-(4-cyano-phenyl)-1-methyl-1H-indol-6-yl]-amide]
> 1 µM | 0.5 to 1 µM | CC(C)n1cc(-c2ccc(Cl)cc2)c2ccc(NS(C)(=O)=O)cc21 [Example 36, N-[3-(4-Chloro-phenyl)-1-isopropyl-1H-indol-6-yl]-methanesulfonamide]
> 1 µM | > 1 µM | CC(C)n1cc(-c2ccc3c(cnn3C)c2)c2ccc(NS(C)(=O)=O)cc21 [Example 107, N-[1-Isopropyl-3-(1-methyl-1H-indazol-5-yl)-1H-indol-6-yl]-methanesulfonamide]
> 1 µM | 0.5 to 1 µM | CC(C)n1cc(-c2ccc3sccc3c2)c2ccc(NS(C)(=O)=O)cc21 [Example 95, N-(3-Benzo[b]thiophen-5-yl-1-isopropyl-1H-indol-6-yl)-methanesulfonamide]
> 1 µM | > 1 µM | COc1ccc(-c2cn(C(C)C)c3cc(NS(C)(=O)=O)ccc23)cn1 [Example 88, N-[1-Isopropyl-3-(6-methoxy-pyridin-3-yl)-1H-indol-6-yl]-methanesulfonamide]
> 1 µM | 0.1 to 0.5 µM | CC(C)n1cc(-c2ccc(O)cc2)c2ccc(NS(C)(=O)=O)cc21 [Example 93, N-[3-(4-Hydroxy-phenyl)-1-isopropyl-1H-indol-6-yl]-methanesulfonamide]
> 1 µM | > 1 µM | CCOC(=O)c1ccc(-c2cn(C(C)C)c3cc(NS(C)(=O)=O)ccc23)cc1 [Example 74, 4-(1-Isopropyl-6-methanesulfonylamino-1H-indol-3-yl)-benzoic acid ethyl ester]
0.1 to 0.5 µM | 0.05 to 0.1 µM | CC(C)n1cc(-c2ccc(C#N)n2C)c2ccc(NS(C)(=O)=O)cc21 [Example 78, N-[3-(5-Cyano-1-methyl-1H-pyrrol-2-yl)-1-isopropyl-1H-indol-6-yl]-methanesulfonamide]
0.05 to 0.1 µM | > 1 µM | CS(=O)(=O)Nc1ccc2c(-c3ccc(C#N)cc3)cn(Cc3ccccc3)c2c1 [Example 72, N-[1-Benzyl-3-(4-cyano-phenyl)-1H-indol-6-yl]-methanesulfonamide]
> 1 µM | 0.5 to 1 µM | Cc1ccc(-c2cn(C(C)C)c3cc(NS(C)(=O)=O)ccc23)cc1F [Example 84, N-[3-(3-Fluoro-4-methyl-phenyl)-1-isopropyl-1H-indol-6-yl]-methanesulfonamide]
> 1 µM | 0.5 to 1 µM | CC(C)n1cc(-c2ccc(C#N)c(F)c2)c2ccc(NS(C)(=O)=O)cc21 [Example 38, N-[3-(4-Cyano-3-fluoro-phenyl)-1-isopropyl-1H-indol-6-yl]-methanesulfonamide]
> 1 µM | > 1 µM | Cn1cc(-c2ccc(C#N)cc2)c2ccc(NS(C)(=O)=O)cc21 [Example 25, N-[3-(4-Cyano-phenyl)-1-methyl-1H-indol-6-yl]-methanesulfonamide]
